Data: patent publication US20230085307A1, “PYRIDAZINONE COMPOUND AND HERBICIDE” (NISSAN CHEMICAL CORPORATION, priority 2019, published 2023)

Columns and labels:
late watergrass = assay: Test Example 1: herbicidal activity, application before weed generation under submerged conditions (Table 16, symbol A); assay type: in vivo, late watergrass (Echinochloa oryzicola); details: amount of applied herbicide 320 g/ha
Method in brief: (§1)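 Emulsion formulation, water-diluted to set dose, was put onto the flooded surface (4 cm depth, alluvial soil) the same day weeds were sown and 2.5-leaf rice transplanted. After 3 weeks at 25-30 °C under glass, each species was rated 0 (≤5% kill) to 5 (≥90% kill).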

Japanese bulrush = assay: Test Example 1: herbicidal activity, application before weed generation under submerged conditions (Table 16, symbol B); assay type: in vivo, Japanese bulrush (Schoenoplectus juncoides); details: amount of applied herbicide 320 g/ha
Method in brief: as §1

oval-leafed pondweed = assay: Test Example 1: herbicidal activity, application before weed generation under submerged conditions (Table 16, symbol C); assay type: in vivo, oval-leafed pondweed (Monochoria vaginalis); details: amount of applied herbicide 320 g/ha
Method in brief: as §1

barnyard grass [1] = assay: Test Example 3: herbicidal effect by foliage application, Wagner pot (Table 18, symbol H); assay type: in vivo, barnyard grass (Echinochloa crus-galli); details: 320 g/ha
Method in brief: (§2)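 Plants were sown in alluvial soil held under 0.1–0.5 cm standing water and grown 14 days in a greenhouse at 25–30 °C. An emulsifiable formulation, water-diluted to the set dose, was then sprayed onto the foliage, and effects were scored three weeks later using previously defined criteria.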

Chinese sprangletop = assay: Test Example 3: herbicidal effect by foliage application, Wagner pot (Table 18, symbol D); assay type: in vivo, chinese sprangletop (Leptochloa chinensis); details: 320 g/ha
Method in brief: as §2

rice flat sedge = assay: Test Example 3: herbicidal effect by foliage application, Wagner pot (Table 18, symbol E); assay type: in vivo, rice flat sedge (Cyperus iria); details: 320 g/ha
Method in brief: as §2

southern crabgrass [2] = assay: Test Example 4: herbicidal effect by soil treatment (Table 19, symbol F); assay type: in vivo, southern crabgrass (Digitaria ciliaris); details: amount of applied herbicide 320 g/ha
Method in brief: (§3)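 Applied as a water-diluted emulsion, the compound was sprayed onto soil covering newly sown seeds. Evaluation came three weeks after application, in a greenhouse held at 25° C. to 30° C.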

green foxtail [3] = assay: Test Example 4: herbicidal effect by soil treatment (Table 19, symbol G); assay type: in vivo, green foxtail (Setaria viridis); details: amount of applied herbicide 320 g/ha
Method in brief: as §3

barnyard grass [4] = assay: Test Example 4: herbicidal effect by soil treatment (Table 19, symbol H); assay type: in vivo, barnyard grass (Echinochloa crus-galli); details: amount of applied herbicide 320 g/ha
Method in brief: as §3

wild oat [5] = assay: Test Example 4: herbicidal effect by soil treatment (Table 19, symbol I); assay type: in vivo, wild oat (Avena fatua); details: amount of applied herbicide 320 g/ha
Method in brief: as §3

blackgrass [6] = assay: Test Example 4: herbicidal effect by soil treatment (Table 19, symbol J); assay type: in vivo, blackgrass (Alopecurus myosuroides); details: amount of applied herbicide 320 g/ha
Method in brief: as §3

Italian ryegrass [7] = assay: Test Example 4: herbicidal effect by soil treatment (Table 19, symbol K); assay type: in vivo, Italian ryegrass (Lolium multiflorum); details: amount of applied herbicide 320 g/ha
Method in brief: as §3

windgrass [8] = assay: Test Example 4: herbicidal effect by soil treatment (Table 19, symbol L); assay type: in vivo, windgrass (Apera spica-venti); details: amount of applied herbicide 320 g/ha
Method in brief: as §3

velvetleaf [9] = assay: Test Example 4: herbicidal effect by soil treatment (Table 19, symbol M); assay type: in vivo, velvetleaf (Abutilon theophrasti); details: amount of applied herbicide 320 g/ha
Method in brief: as §3

redroot pigweed [10] = assay: Test Example 4: herbicidal effect by soil treatment (Table 19, symbol N); assay type: in vivo, redroot pigweed (Amaranthus retroflexus); details: amount of applied herbicide 320 g/ha
Method in brief: as §3

lambsquarters [11] = assay: Test Example 4: herbicidal effect by soil treatment (Table 19, symbol O); assay type: in vivo, lambsquarters (Chenopodium album); details: amount of applied herbicide 320 g/ha
Method in brief: as §3

chickweed [12] = assay: Test Example 4: herbicidal effect by soil treatment (Table 19, symbol P); assay type: in vivo, common chickweed (Stellaria media); details: amount of applied herbicide 320 g/ha
Method in brief: as §3

persian speedwell [13] = assay: Test Example 4: herbicidal effect by soil treatment (Table 19, symbol R); assay type: in vivo, Persian speedwell (Veronica persica); details: amount of applied herbicide 320 g/ha
Method in brief: as §3

southern crabgrass [14] = assay: Test Example 5: herbicidal effect by foliage application, plastic box (Table 20, symbol F); assay type: in vivo, southern crabgrass (Digitaria ciliaris); details: amount of applied herbicide 320 g/ha; foliage application after 14-day growth; evaluated three weeks after application
Method in brief: (§4)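 Sow seeds spot-wise in sterilized diluvial soil; cover with ~1.5 cm soil. Grow 14 days in greenhouse, 25° C. to 30° C. Spray foliage with emulsion diluted to predetermined amount. Rate effect after 3 weeks.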

green foxtail [15] = assay: Test Example 5: herbicidal effect by foliage application, plastic box (Table 20, symbol G); assay type: in vivo, green foxtail (Setaria viridis); details: amount of applied herbicide 320 g/ha; foliage application after 14-day growth; evaluated three weeks after application
Method in brief: as §4

barnyard grass [16] = assay: Test Example 5: herbicidal effect by foliage application, plastic box (Table 20, symbol H); assay type: in vivo, barnyard grass (Echinochloa crus-galli); details: amount of applied herbicide 320 g/ha; foliage application after 14-day growth; evaluated three weeks after application
Method in brief: as §4

wild oat [17] = assay: Test Example 5: herbicidal effect by foliage application, plastic box (Table 20, symbol I); assay type: in vivo, wild oat (Avena fatua); details: amount of applied herbicide 320 g/ha; foliage application after 14-day growth; evaluated three weeks after application
Method in brief: as §4

blackgrass [18] = assay: Test Example 5: herbicidal effect by foliage application, plastic box (Table 20, symbol J); assay type: in vivo, blackgrass (Alopecurus myosuroides); details: amount of applied herbicide 320 g/ha; foliage application after 14-day growth; evaluated three weeks after application
Method in brief: as §4

Italian ryegrass [19] = assay: Test Example 5: herbicidal effect by foliage application, plastic box (Table 20, symbol K); assay type: in vivo, Italian ryegrass (Lolium multiflorum); details: amount of applied herbicide 320 g/ha; foliage application after 14-day growth; evaluated three weeks after application
Method in brief: as §4

windgrass [20] = assay: Test Example 5: herbicidal effect by foliage application, plastic box (Table 20, symbol L); assay type: in vivo, windgrass (Apera spica-venti); details: amount of applied herbicide 320 g/ha; foliage application after 14-day growth; evaluated three weeks after application
Method in brief: as §4

velvetleaf [21] = assay: Test Example 5: herbicidal effect by foliage application, plastic box (Table 20, symbol M); assay type: in vivo, velvetleaf (Abutilon theophrasti); details: amount of applied herbicide 320 g/ha; foliage application after 14-day growth; evaluated three weeks after application
Method in brief: as §4

redroot pigweed [22] = assay: Test Example 5: herbicidal effect by foliage application, plastic box (Table 20, symbol N); assay type: in vivo, redroot pigweed (Amaranthus retroflexus); details: amount of applied herbicide 320 g/ha; foliage application after 14-day growth; evaluated three weeks after application
Method in brief: as §4

lambsquarters [23] = assay: Test Example 5: herbicidal effect by foliage application, plastic box (Table 20, symbol O); assay type: in vivo, lambsquarters (Chenopodium album); details: amount of applied herbicide 320 g/ha; foliage application after 14-day growth; evaluated three weeks after application
Method in brief: as §4

chickweed [24] = assay: Test Example 5: herbicidal effect by foliage application, plastic box (Table 20, symbol P); assay type: in vivo, common chickweed (Stellaria media); details: amount of applied herbicide 320 g/ha; foliage application after 14-day growth; evaluated three weeks after application
Method in brief: as §4

persian speedwell [25] = assay: Test Example 5: herbicidal effect by foliage application, plastic box (Table 20, symbol R); assay type: in vivo, Persian speedwell (Veronica persica); details: amount of applied herbicide 320 g/ha; foliage application after 14-day growth; evaluated three weeks after application
Method in brief: as §4

Compound	Herbicidal effect, A: late watergrass (late watergrass)	Herbicidal effect, B: Japanese bulrush (Japanese bulrush)	Herbicidal effect, C: oval-leafed pondweed (oval-leafed pondweed)	herbicidal effect on barnyard grass (H) (barnyard grass [1])	herbicidal effect on Chinese sprangletop (D) (Chinese sprangletop)	herbicidal effect on rice flat sedge (E) (rice flat sedge)	Herbicidal effect by foliage application, F: southern crabgrass (southern crabgrass [14])	Herbicidal effect by foliage application, G: green foxtail (green foxtail [15])	Herbicidal effect by foliage application, H: barnyard grass (barnyard grass [16])	Herbicidal effect by foliage application, I: wild oat (wild oat [17])	Herbicidal effect by foliage application, J: blackgrass (blackgrass [18])	Herbicidal effect by foliage application, K: Italian ryegrass (Italian ryegrass [19])	Herbicidal effect by foliage application, L: windgrass (windgrass [20])	Herbicidal effect by foliage application, M: velvetleaf (velvetleaf [21])	Herbicidal effect by foliage application, N: redroot pigweed (redroot pigweed [22])	Herbicidal effect by foliage application, O: lambsquarters (lambsquarters [23])	Herbicidal effect by foliage application, P: chickweed (chickweed [24])	Herbicidal effect by foliage application, R: persian speedwell (persian speedwell [25])	also measured
CCCC(=O)Oc1c(C)nn(C)c(=O)c1-c1c(-c2ccc(OC(F)(F)F)cc2)sc2c(Cl)cccc12 [4-079]	2 (Herbicidal rate of 20% or more and less than 40%)	0 (Herbicidal rate of 5% or less (almost no effect))	0 (Herbicidal rate of 5% or less (almost no effect))	2 (Herbicidal rate of 20% or more and less than 40%)	2 (Herbicidal rate of 20% or more and less than 40%)	2 (Herbicidal rate of 20% or more and less than 40%)	0 (Herbicidal rate of 5% or less (almost no effect))	0 (Herbicidal rate of 5% or less (almost no effect))	0 (Herbicidal rate of 5% or less (almost no effect))	0 (Herbicidal rate of 5% or less (almost no effect))	0 (Herbicidal rate of 5% or less (almost no effect))	0 (Herbicidal rate of 5% or less (almost no effect))	3 (Herbicidal rate of 40% or more and less than 70%)	4 (Herbicidal rate of 70% or more and less than 90%)	3 (Herbicidal rate of 40% or more and less than 70%)	3 (Herbicidal rate of 40% or more and less than 70%)	5 (Herbicidal rate of 90% or more (almost completely withered))	5 (Herbicidal rate of 90% or more (almost completely withered))	Herbicidal effect by soil treatment, F: southern crabgrass (southern crabgrass [2]): 0 (Herbicidal rate of 5% or less (almost no effect)); Herbicidal effect by soil treatment, G: green foxtail (green foxtail [3]): 0 (Herbicidal rate of 5% or less (almost no effect)); Herbicidal effect by soil treatment, H: barnyard grass (barnyard grass [4]): 0 (Herbicidal rate of 5% or less (almost no effect)); Herbicidal effect by soil treatment, I: wild oat (wild oat [5]): 0 (Herbicidal rate of 5% or less (almost no effect)); Herbicidal effect by soil treatment, J: blackgrass (blackgrass [6]): 0 (Herbicidal rate of 5% or less (almost no effect)); Herbicidal effect by soil treatment, K: Italian ryegrass (Italian ryegrass [7]): 0 (Herbicidal rate of 5% or less (almost no effect)); Herbicidal effect by soil treatment, L: windgrass (windgrass [8]): 0 (Herbicidal rate of 5% or less (almost no effect)); Herbicidal effect by soil treatment, M: velvetleaf (velvetleaf [9]): 0 (Herbicidal rate of 5% or less (almost no effect)); Herbicidal effect by soil treatment, N: redroot pigweed (redroot pigweed [10]): 2 (Herbicidal rate of 20% or more and less than 40%); Herbicidal effect by soil treatment, O: lambsquarters (lambsquarters [11]): 0 (Herbicidal rate of 5% or less (almost no effect)); Herbicidal effect by soil treatment, P: chickweed (chickweed [12]): 0 (Herbicidal rate of 5% or less (almost no effect)); Herbicidal effect by soil treatment, R: persian speedwell (persian speedwell [13]): 3 (Herbicidal rate of 40% or more and less than 70%)
Cc1nn(C)c(=O)c(-c2c(-c3ccc(OC(C)C)cc3)sc3cc(F)c(F)cc23)c1O [5-019]	3 (Herbicidal rate of 40% or more and less than 70%)	0 (Herbicidal rate of 5% or less (almost no effect))	0 (Herbicidal rate of 5% or less (almost no effect))	4 (Herbicidal rate of 70% or more and less than 90%)	0 (Herbicidal rate of 5% or less (almost no effect))	1 (Herbicidal rate of 5% or more and less than 20%)	4 (Herbicidal rate of 70% or more and less than 90%)	4 (Herbicidal rate of 70% or more and less than 90%)	4 (Herbicidal rate of 70% or more and less than 90%)	0 (Herbicidal rate of 5% or less (almost no effect))	0 (Herbicidal rate of 5% or less (almost no effect))	3 (Herbicidal rate of 40% or more and less than 70%)	0 (Herbicidal rate of 5% or less (almost no effect))	4 (Herbicidal rate of 70% or more and less than 90%)	5 (Herbicidal rate of 90% or more (almost completely withered))	3 (Herbicidal rate of 40% or more and less than 70%)	5 (Herbicidal rate of 90% or more (almost completely withered))	5 (Herbicidal rate of 90% or more (almost completely withered))	F: southern crabgrass, herbicidal effect grade (southern crabgrass [2]): 0 (Herbicidal rate of 5% or less (almost no effect)); G: green foxtail, herbicidal effect grade (green foxtail [3]): 3 (Herbicidal rate of 40% or more and less than 70%); H: barnyard grass, herbicidal effect grade (barnyard grass [4]): 0 (Herbicidal rate of 5% or less (almost no effect)); I: wild oat, herbicidal effect grade (wild oat [5]): 0 (Herbicidal rate of 5% or less (almost no effect)); J: blackgrass, herbicidal effect grade (blackgrass [6]): 0 (Herbicidal rate of 5% or less (almost no effect)); K: Italian ryegrass, herbicidal effect grade (Italian ryegrass [7]): 0 (Herbicidal rate of 5% or less (almost no effect)); L: windgrass, herbicidal effect grade (windgrass [8]): 0 (Herbicidal rate of 5% or less (almost no effect)); M: velvetleaf, herbicidal effect grade (velvetleaf [9]): 3 (Herbicidal rate of 40% or more and less than 70%); N: redroot pigweed, herbicidal effect grade (redroot pigweed [10]): 4 (Herbicidal rate of 70% or more and less than 90%); O: lambsquarters, herbicidal effect grade (lambsquarters [11]): 2 (Herbicidal rate of 20% or more and less than 40%); P: chickweed, herbicidal effect grade (chickweed [12]): 1 (Herbicidal rate of 5% or more and less than 20%); R: persian speedwell, herbicidal effect grade (persian speedwell [13]): 4 (Herbicidal rate of 70% or more and less than 90%)
